Source: patent US6005099A, “Glucosamine disaccharides, method for their preparation, pharmaceutical composition comprising same, and their use” (priority 1993, dated 1999)
In brackets after ≈: the same amount, converted by molar mass. Entries after “also recorded” stand apart in the source; their conditions may differ.

Columns and labels:
[1] = tested on: macrophages of C57BL/6 mice; experiment: Production of interleukin-6 (IL-6) in supernatants of macrophages, ELISA; assay type: cell-based
Description: Bone marrow was collected from hip, femur and tibia of six week old male C57BL/6 mice.
After 7 days the mature macrophages were collected and resuspended in Dulbecco modified medium comprising 5% foetal calf serum to a concentration of 7×10^6 cells per ml. This cell suspension was mixed 1:1, (v/v) with samples diluted in the same medium and used in the biological tests performed in microplates with 70,000 cells/well (incubation at 37° C. for 22 hours, 100% humidity and 8% CO2).
IL-6 concentration in supernatants of macrophages was determined by an ELISA test (Kit ENDOGEN, EM-IL-6).

[2] = tested on: peritoneal carcinomatosis (Pro b cells); experiment: In vivo anti-tumor activity against peritoneal carcinomatosis in BDIX rats; details: for Number of rats with carcinomatoses of class 0 / Number of rats with carcinomatoses of class 1 / Number of rats with carcinomatoses of class 2 / Number of rats with carcinomatoses of class 3 / Number of rats with carcinomatoses of class 4: 10 rats, 6 weeks; for Number of rats with carcinomatoses of class 0: class 0: no tumor nodules visible; for Number of rats with carcinomatoses of class 1: class 1: a few nodules less than 0.2 cm; for Number of rats with carcinomatoses of class 2: class 2: nodules too many to be counted, up to 0.5 cm; for Number of rats with carcinomatoses of class 3: class 3: tumors up to 1 cm; for Number of rats with carcinomatoses of class 4: class 4: cavity entirely invaded by tumors
Description: The in vivo biological activity of disaccharide A was investigated for anti-tumor activity against peritoneal carcinomatosis induced in BDIX rats. Pro b cells obtained according to the method of Martin (Martin, F. et al, International Journal of Cancer, Volume 32, pages 623-627 [1983]) were injected intraperitoneally in rat (10^6 cells per rat). After 10 days numerous solid nodules appear in the mesenterium in the milky spots and progressively invade the peritoneal cavity (see Lagadec, P. et al, Invasion and Metastasis, Volume 7, pages 83-95 [1987]). Hemorrhagic ascitis appeared after 4-5 weeks and all rats died within 8-12 weeks.
Immunotherapy started 14 days after injection of the tumoral Pro b cells. The treatment consisted of intraperitoneal injections of disaccharide A; doses 0.1, 0.3 and 0.8 mg/kg bodyweight. Disaccharide A was dissolved in an aqueous solution of 0.9% NaCl and 0.1% triethylamine. The rats received five injections once every 3.5 days. A control group was injected with the aqueous solution. Both groups comprised 10 rats.
6 Weeks after the injection of the tumoral cells autopsy was carried out. The extent of peritoneal carcinomatosis was evaluated blindly and the rats were classified in the order of increasing carcinomatosis.
The classification of the nodule size is as follows:
class 0: no tumor nodules visible;
class 1: a few nodules of size less than 0.2 cm;
class 2: nodules too many to be counted size up to 0.5 cm;
class 3: tumors in size up to 1 cm;
class 4: tumoral cavity entirely invaded by tumors, size a few cm.
The statistical significance of the anti-tumoral activity was calculated by the Kruskal-Wallis test (1) or (2) using variance analysis.

[3] = for lipid A and 3-O-deacylated lipid A activity relatively constant within the tested range, no maximum

## CCCCCCCCCCCC(=O)O[C@H](CCCCCCCCCCC)CC(=O)N[C@H]1[C@H](OC[C@H]2O[C@H](OP(=O)(O)O)[C@H](NC(=O)C[C@H](O)CCCCCCCCCCC)[C@@H](O)[C@@H]2O)O[C@H](CO)[C@@H](OP(=O)(O)O)[C@@H]1O [disaccharide A, 2-Deoxy-6-O-[2-deoxy-2-[(R)-3-dodecanoyloxytetradecanoylamino]-4-O-phosphono-β-D-glucopyranosyl]-2-[(R)-3-hydroxytetradecanoylamino]-α-D-glucopyranosyl dihydrogenphosphate]
[1]; 50% activity
  IL-6 at 50% activity: 2850 pg/mL
[1]; Mus musculus, Macrophage, 22 h, read-out: IL-6: Minimum activity, concentration
  minimal effective concentration: 0.016 µg/mL
[1]; Mus musculus, Macrophage, read-out: IL-6: 50% activity, concentration
  EC50: 1 µg/mL (≈ 0.881 µM)
[1]; at the concentration of minimum activity
  IL-6 at minimum activity: 850 ± 350 pg/mL
[1]; [3]
  IL-6: Maximum activity, concentration: 50 µg/mL
  IL-6 at maximum activity: 5700 ± 2650 pg/mL
[1]; macrophages of C57BL/6 mice
  IL-6 production, in words: significantly lower than for LPS; also recorded: more strongly than lipid A and 3-O-deacylated lipid A
[2]; 0.1 mg/kg i.p.
  Ascitis volume, Average: 7 ± 7 ml/rat
  Ascitis volume, Limits: 0-18 ml/rat
  Number of rats with carcinomatoses of class 0: 0
  Number of rats with carcinomatoses of class 1: 2
  Number of rats with carcinomatoses of class 2: 0
  Number of rats with carcinomatoses of class 3: 4
  Number of rats with carcinomatoses of class 4: 4
[2]; 0.3 mg/kg i.p.
  Ascitis volume, Average: 2 ± 6 ml/rat
  Ascitis volume, Limits: 0-20 ml/rat
  Number of rats with carcinomatoses of class 0: 2
  Number of rats with carcinomatoses of class 1: 3
  Number of rats with carcinomatoses of class 2: 2
  Number of rats with carcinomatoses of class 3: 2
  Number of rats with carcinomatoses of class 4: 1
[2]; 0.8 mg/kg i.p.
  Ascitis volume, Average: 0 ± 1 ml/rat
  Ascitis volume, Limits: 0-2 ml/rat
  Number of rats with carcinomatoses of class 0: 1
  Number of rats with carcinomatoses of class 1: 6
  Number of rats with carcinomatoses of class 2: 1
  Number of rats with carcinomatoses of class 3: 1
  Number of rats with carcinomatoses of class 4: 1
[2]; peritoneal carcinomatosis
  Anti-tumoral effect, in words: dose-dependent anti-tumoral effect
